The results in this text go back to patent US6534524B1, “Indazole compounds and pharmaceutical compositions for inhibiting protein kinases, and methods for their use” (Agouron Pharmaceuticals, Inc., priority 1999, dated 2003).

SMILES strings stand for the structures. Read-outs that look alike come from different tables or passages of the source.

Data set [1] is described as follows: Determination of inhibitor concentration in mouse plasma after intraperitoneal and oral dosing. In kind it is in vivo. The essentials:
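Plasma levels quantified by HPLC or LC-MS using a standard curve prepared in mouse plasma, following ethyl acetate extraction with internal standard and sodium hydroxide. Sampling at 0.5, 1, 4 h (ocular bleed) and 7 h (cardiac puncture) after oral or intraperitoneal dosing.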

The target in data set [2] is human FGF-R1 (Homo sapiens, UniProt P11362, C488A/C584S/L457V). Description: FGF-R spectrophotometric assay.
Sequence of human FGF-R1 (P11362 456-766 L457V/C488A/C584S): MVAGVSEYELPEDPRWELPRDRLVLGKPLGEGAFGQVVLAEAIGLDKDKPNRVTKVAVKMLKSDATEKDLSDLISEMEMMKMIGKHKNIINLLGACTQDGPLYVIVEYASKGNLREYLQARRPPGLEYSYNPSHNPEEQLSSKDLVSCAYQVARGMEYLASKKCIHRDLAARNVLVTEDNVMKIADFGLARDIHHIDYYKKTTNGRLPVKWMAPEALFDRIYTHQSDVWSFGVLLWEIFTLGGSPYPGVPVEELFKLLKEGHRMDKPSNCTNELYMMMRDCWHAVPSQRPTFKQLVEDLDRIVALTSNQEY
Data set [3] in a line: Human liver microsome (HLM) assay. In kind it is in vitro ADME. Conditions: human liver microsomes, 5 μM test compound. The essentials:
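LC-MS quantified test compound remaining after 0 and 2 h incubation with human liver microsomes. Triplicate samples, clarified by 10 min centrifugation at 14000 g.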
Background: Microsomes from liver hold many membrane-bound enzymes, among them those of drug oxidation.

Data set [4] has as its system retinal vasculature (VEGF dependent). Description: In vivo assay of retinal vascular development in neonatal rats. The following applies: P8 model; intravitreal; 5 mg/ml; vehicle PEG/water 50:50.
Data set [5] concerns lung cancer cells (line MV522). Description: Cancer cell proliferation (MV522) assay. The class given is cell-based. The procedure: Cancer Cell Proliferation (MV522) Assay
The protocol for assessing cellular proliferation in cancer cells is similar to that used for assessments in HUVEC cells. Two thousand lung cancer cells (line MV522, acquired from American Tissue Cultural Collection) were seeded in growth media (RPMI1640 medium supplemented with 2 mM glutamine and 10% FBS). Cells are allowed to attach for 1 day prior to addition of test agents and/or vehicles. Cells are treated simultaneously with the same test agents used in the HUVEC assay. Cellular proliferation is quantified by MTT dye reduction assay 72 hours after exposure to test agents. The total length of the assay is 4 days vs. 5 for HUVEC cells because MV522 cells are not exposed to starvation medium.

Data set [6] deals with human umbilical vein endothelial cells (HUVEC). Description: HUVEC proliferation assay (VEGF-stimulated, MTT). The class given is cell-based. The following applies: Homo sapiens, HUVEC.
The target of data set [7] is unphosphorylated VEGF-R2Δ50 (FLVK) (Homo sapiens, UniProt P35968, DEL940-989/E990V). Kind of data set: VEGF-R2 coupled spectrophotometric assay, unphosphorylated VEGF-R2Δ50 (FLVK). Conditions: for Ki: FLVK Ki, Table 1.
Sequence of unphosphorylated VEGF-R2Δ50 (FLVK) (P35968 with tags, fused parts or gaps DEL940-989/E990V limits assumed): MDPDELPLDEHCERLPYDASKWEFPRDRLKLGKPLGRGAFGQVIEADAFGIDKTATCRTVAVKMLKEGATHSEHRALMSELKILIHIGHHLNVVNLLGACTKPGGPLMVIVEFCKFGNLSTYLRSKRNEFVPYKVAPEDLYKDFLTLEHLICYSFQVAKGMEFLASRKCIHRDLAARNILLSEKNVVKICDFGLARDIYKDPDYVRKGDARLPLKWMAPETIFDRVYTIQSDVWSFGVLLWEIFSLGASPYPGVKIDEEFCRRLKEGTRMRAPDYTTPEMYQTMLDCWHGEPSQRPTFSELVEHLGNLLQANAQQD
Data set [8] has as its system VEGF dependent retinal neovascularization. Kind of data set: In vivo assay of retinal vascular development in neonatal rat model of retinopathy of prematurity. Conditions: ROP model, intravitreal, vehicle PEG/water 70:30; for % inhibition: 1 mg/ml. The procedure:
In Vivo Assay of Retinal Vascular Development in Neonatal Rat Model of Retinopathy of Prematurity A second model of VEGF dependent retinal neovascularization was employed to evaluate the activities of this series of compounds. […] This alternating cycle of hyperoxia followed by hypoxia is repeated 7 times after which the animals are removed to room air (P14). Compounds are administered via intravitreal injection upon removal to room air and the animals are sacrificed 6 days later (P20). The isolated retinas are then isolated, stained mounted and analyzed as detail above in the development model. The effectiveness was also graded as is described for the development model.

Where [9] appears, read: IP, 25 mg/kg, vehicle PEG400:H2O pH 2.3 30:70.
The mark [10] stands for this setting: PO, 10 mg/kg, vehicle PEG400:H2O pH 2.3 30:70.
[11] abbreviates: PO, 25 mg/kg, vehicle PEG400:H2O pH 2.3 30:70.
Setting [12] is: PO, 50 mg/kg, vehicle PEG400:H2O pH 2.3 30:70.
[13] abbreviates: female, IP, 25 mg/kg, vehicle PEG400:H2O pH 2.3 30:70, read-out: Cmin (7 hr conc.).
The mark [14] stands for this setting: female, PO, 25 mg/kg, vehicle PEG400:H2O pH 2.3 30:70, read-out: Cmin (7 hr conc.).
The mark [15] stands for this setting: female, PO, 50 mg/kg, vehicle PEG400:H2O pH 2.3 30:70, read-out: Cmin (7 hr conc.).
[16] abbreviates: + albumin, read-out: HUVEC + albumin IC50.
Where [17] appears, read: female, IP, 25 mg/kg, vehicle PEG400:H2O pH 2.3 30:70.
The mark [18] stands for this setting: female, PO, 50 mg/kg, vehicle PEG400:H2O pH 2.3 30:70.
The mark [19] stands for this setting: IP, 25 mg/kg, vehicle PEG400:H2O pH 2.3 60:40.
Where [20] appears, read: PO, 50 mg/kg, vehicle PEG400:H2O pH 2.3 60:40.
Setting [21] is: female, IP, 25 mg/kg, vehicle PEG400:H2O pH 2.3 60:40, read-out: Cmin (7 hr conc.).
[22] abbreviates: female, PO, 50 mg/kg, vehicle PEG400:H2O pH 2.3 60:40, read-out: Cmin (7 hr conc.).

Usually Cmax stands for the highest concentration seen after dosing. Usually Ki stands for the equilibrium dissociation constant of an inhibitor or competing ligand from its target. A higher Ki goes with a looser hold on the target. The term % inhibition denotes the change of the read-out against control, counted positive when it falls. Read a low % inhibition as a weak effect. What is called IC50 is the concentration needed to halve the response being measured. As usually defined, the AUC(0-t) is exposure summed from dosing to a finite time, without extrapolation to infinity. A lower AUC(0-t) goes with less exposure. One may read the inhibition as the share of the control response that was lost under treatment.

With `CCn1nc(C)cc1C(=O)Nc1cccc(Oc2ccc3c(/C=C/c4ccccn4)n[nH]c3c2)c1` [Example 31(d), 6-[3-((1-Ethyl-3-methyl-1H-pyrazol-5-yl)carboxamido)phenoxy]-3-E-[2-(pyridin-2-yl)ethenyl]-1H-indazole], the AUClast in data set [1] (setting [9]) worked out at 237784 ng·h/mL; in data set [1] (setting [10]), 49120 ng·h/mL; in data set [1] (setting [11]), 203860 ng·h/mL; in data set [1] (setting [12]) it was 430683 ng·h/mL. Moreover, the maximum concentration (Cmax) came out at 64184 ng/mL in data set [1] (setting [9]), 9740 ng/mL in data set [1] (setting [10]), 50810 ng/mL in data set [1] (setting [11]) and 76915 ng/mL in data set [1] (setting [12]). In addition, the “plasma half-life (T1/2)” value stood at 5.3 h in data set [1] (setting [9]), 3.1 h in data set [1] (setting [10]), 1.9 h in data set [1] (setting [11]) and 39.3 h in data set [1] (setting [12]). Also, the concentration at 7 h in data set [1] (setting [13]) amounted to 15100 ng/mL; in data set [1] (setting [14]), 3800 ng/mL; in data set [1] (setting [15]) it was 42500 ng/mL. Also, the concentration at 7 hr in data set [1] (female, PO, 10 mg/kg, vehicle PEG400:H2O pH 2.3 30:70, read-out: Cmin (7 hr conc.)) worked out at 2020 ng/mL. In data set [2], the inhibitory constant (Ki) stood at 14 nM. Further, the “% remain (HLM, 2 h)” value in data set [3] was 110%. Also, the “% inhibition” value in data set [4] turned out to be 12%.

In the case of `O=C(c1cccc(NC(=O)c2cccc3[nH]ccc23)c1)c1ccc2c(/C=N/n3cccc3)n[nH]c2c1` [Example 45(a), 6-[3-(Indol-4-ylcarboxamido)benzoyl]-3-E-[N-(pyrrol-1-yl)iminomethyl]-1H-indazole], the values for the concentration for half-maximal inhibition (IC50) in data set [5], in data set [6] (setting [16]) and in data set [6] (read-out: HUVEC IC50) were 3500 nM, around 15 nM and 3.1 nM, respectively.

As to `CCn1nc(C)cc1C(=O)Nc1cc(C(=O)c2ccc3c(/C=C/c4ccccn4)n[nH]c3c2)ccc1C` [Example 41(ee), 6-[3-((1-Ethyl-3-methyl-1H-pyrazol-5-yl)carboxanido)-4-methylbenzoyl]-3-E-[2-(pyridin-2-yl)ethenyl]-1H-indazole], the “plasma half-life (T1/2)” value in data set [1] (setting [9]) is 4.0 h; in data set [1] (setting [12]) it was 3.4 h. For the same compound, the values for the AUC(0-t) in data set [1] (setting [17]) and in data set [1] (setting [18]) were above 28400 ng·h/mL and above 25300 ng·h/mL, respectively. Also, the concentration at 7 h in data set [1] (setting [13]) amounted to 1670 ng/mL; in data set [1] (setting [15]) it was 1210 ng/mL. For the same compound, the “% remain (HLM, 2 h)” value in data set [3] is recorded as 47%. The same compound yielded a Ki in data set [7] of 0.13 nM. Further, the “Initial Evaluation” value in data set [4] was “+/++ var”.

With `C=CCONC(=O)c1ccccc1Sc1ccc2c(/C=C/c3ccccn3)n[nH]c2c1` [Example 35(j), 6-[2-(Allyloxycarbamoyl)phenylsulfanyl]-3-E-[2-(pyridin-2-yl)ethenyl]-1H-indazole], the AUClast in data set [1] (setting [9]) was 9531 ng·h/mL; in data set [1] (setting [12]), 1328 ng·h/mL. For the same compound, the “plasma half-life (T1/2)” value in data set [1] (setting [9]) was determined as 1.3 h; in data set [1] (setting [12]), 4.5 h. The figures for the concentration at 7 h in data set [1] (setting [13]) and in data set [1] (setting [15]) were 52 ng/mL and 5 ng/mL, respectively. Further, in data set [6] (setting [16]), the IC50 was determined as 1.5 nM. In data set [3], the “% remain (HLM, 2 h)” value turned out to be 5%. Moreover, the inhibition at 0.05 µM in data set [7] (read-out: FLVK % inhibition) is 99%. Besides, the “% inhibition” value in data set [4] amounted to 7%.

Regarding `CCCn1nc(C)cc1C(=O)Nc1cccc(C(=O)c2ccc3c(/C=C/c4ccccn4)n[nH]c3c2)c1` [Example 41(r), 6-[3-((1-n-Propyl-3-methyl-1H-pyrazol-5-yl)carboxamido)benzoyl]-3-E-[2-(pyridin-2-yl)ethenyl]-1H-indazole], the area under the curve AUC(0-t) in data set [1] (setting [17]) is above 23800 ng·h/mL; in data set [1] (setting [18]) it was above 17800 ng·h/mL. In addition, the highest concentration (Cmax) in data set [1] (female, IP, 25 mg/kg, vehicle PEG400:H2O pH 2.3 30:70, read-out: Cmax) was above 5000 ng/mL; in data set [1] (female, PO, 50 mg/kg, vehicle PEG400:H2O pH 2.3 30:70, read-out: Cmax), above 5000 ng/mL. Also, the concentration at 7 h in data set [1] (setting [13]) and in data set [1] (setting [15]) was above 5000 ng/mL in each case. For the same compound, the “% remain (HLM, 2 h)” value in data set [3] came out at 83%. The “Initial Evaluation” value in data set [4] is on record as “+/++ var”.

Regarding `CS(=O)(=O)c1ccc(C(=O)Nc2cccc(Oc3ccc4c(/C=C/c5ccccn5)n[nH]c4c3)c2)s1` [Example 31(c), 6-[3-((5-Methylsulfonylthien-2-yl)carboxanido)phenoxy]-3-E-[2-(pyridin-2-yl)ethenyl]-1H-indazole], the “% remain (HLM, 2 h)” value in data set [3] amounted to 87%. The compound further returned an inhibition constant Ki in data set [7] below 0.1 nM. Besides, the “Initial Evaluation” value in data set [4] is on record as “+/++ var”.

Turning to `C/C=C/C(=O)Nc1cccc(C(=O)c2ccc3c(/C=C/c4ccccn4)n[nH]c3c2)c1` [Example 41(c), 6-(3-Crotonylamidobenzoyl)-3-E-[2-(pyridin-2-yl)ethenyl]-1H-indazole], the figures for the AUClast in data set [1] (setting [19]) and in data set [1] (setting [20]) were 3397 ng·h/mL and 3182 ng·h/mL, respectively. Besides, the “plasma half-life (T1/2)” value in data set [1] (setting [19]) stood at 1.7 h; in data set [1] (setting [20]), 2.6 h. Besides, the concentration at 7 h in data set [1] (setting [21]) was 57 ng/mL; in data set [1] (setting [22]), 104 ng/mL. The “% inhibition” value in data set [8] stood at 16%. Further, the “Initial Evaluation” value is listed as “+++ (three pluses give to retinas with near total regression (approximately 75% or greater))” in data set [8] (10 mg/ml) and “++ (two pluses being judged to be approximately 25-75% regression)” in data set [4]. For the same compound, the “% remain (HLM, 2 h)” value in data set [3] is 68%. This compound also showed an inhibition constant Ki in data set [7] of 0.22 nM.

As for `Cc1cc(C(=O)Nc2cc(C(=O)c3ccc4c(/C=C/c5ccccn5)n[nH]c4c3)c(C)cc2C)n(C)n1` [Example 41(mm), 6-[2,4-Dimethyl-5-((1,3-dimethyl-1H-pyrazol-5-yl)carboxamido)benzoyl]-3-E-[2-(pyridin-2-yl)ethenyl]-1H-indazole], in data set [1] (setting [11]), the AUClast was 2261 ng·h/mL, the peak concentration (Cmax) stood at 852 ng/mL and the “plasma half-life (T1/2)” value came out at 2.5 h. Besides, the concentration at 7 h in data set [1] (setting [14]) was found to be 127 ng/mL. In data set [3], the “% remain (HLM, 2 h)” value is listed as 94%. Moreover, the “Initial Evaluation” value in data set [4] is “+ (one plus being detectable regression judged to be approximately 25 percent or less)”.

For the compound `O=C(c1cccc(NC(=O)c2cccc3[nH]ccc23)c1)c1ccc2c(/C=C/c3ccccn3)n[nH]c2c1` [Example 41(d), 6-[3-(Indol-4-ylcarboxamido)benzoyl]-3-E-[2-(pyridin-2-yl)ethenyl]-1H-indazole], the AUClast in data set [1] (setting [19]) was determined as 10324 ng·h/mL; in data set [1] (setting [20]), 7072 ng·h/mL. The “plasma half-life (T1/2)” value in data set [1] (setting [19]) stood at 2.8 h; in data set [1] (setting [20]), 1.5 h. The concentration at 7 h in data set [1] (setting [21]) amounted to 573 ng/mL; in data set [1] (setting [22]), 150 ng/mL. Moreover, in data set [8], the “% inhibition” value is 0%. In addition, in data set [7], affinity was put at a Ki of 0.093 nM.

With `CCONC(=O)c1ccccc1Sc1ccc2c(/C=C/c3ccccn3)n[nH]c2c1` [Example 35(dd), 6-[2-(Ethoxycarbamoyl)phenylsulfanyl]-3-E-[2-(pyridin-2-yl)ethenyl]-1H-indazole], the values for the Ki in data set [2] and in data set [7] were 75 nM and 0.6 nM, respectively. The “% remain (HLM, 2 h)” value in data set [3] is 26%. For the same compound, the “Initial Evaluation” value in data set [4] is “++/+++ var”.
